Laboratory results published in patent US9521847B2, “Synergistic weed control from applications of pyridine carboxylic acid herbicides and synthetic auxin herbicides and/or auxin transport inhibitors” (Dow AgroSciences LLC, priority 2014, dated 2016).

Experiments:
[1] = tested on: pigweed (AMARE, Amaranthus retroflexus); experiment: Greenhouse postemergence trial, % visual injury; type: in vivo
[2] = tested on: winter rape (BRSNW, Brassica napus); experiment: Greenhouse postemergence trial, % visual injury; type: in vivo; conditions: fluroxypyr-MHE 70 g ae/ha
[3] = tested on: common lambsquarters (CHEAL, Chenopodium album L.); experiment: Greenhouse postemergence trial, % visual injury; type: in vivo; conditions: Chenopodium album, post-emergence, read-out: % visual injury Obs
[4] = tested on: kochia (KCHSC, Kochia scoparia); experiment: Greenhouse postemergence trial, % visual injury; type: in vivo; conditions: fluroxypyr-MHE 100 g ae/ha
Experimental: Following the protocol in Example 1, compound 1 and compound 2 were combined with 2,4 D EHE (EC) and applied to kochia (KCHSC, Kochia scoparia) and the phytotoxicity of the herbicidal compositions was measured.
Following the protocol in Example 1, compound 1 (EC) and Compound 2 (SC) were combined with diflufenzopyr and applied to kochia (Kochia scoparia, KCHSC) and the phytotoxicity of the herbicidal composition was measured.

[5] = tested on: velvetleaf (Abutilon theophrasti, ABUTH); experiment: Greenhouse postemergence trial, % visual injury; type: in vivo
[6] = tested on: nutsedge (Cyperus esculentus, CYPES); experiment: Greenhouse postemergence trial, % visual injury; type: in vivo; conditions: CYPES, 70 g ae/ha
[7] = tested on: sunflower (Helianthus annus, HELAN); experiment: Greenhouse postemergence trial, % visual injury; type: in vivo
[8] = tested on: wild buckwheat (Polygonum convolvulus, POLCO); experiment: Greenhouse postemergence trial, % visual injury; type: in vivo
[9] = tested on: Russian thistle (Salsola iberica, SASKR); experiment: Greenhouse postemergence trial, % visual injury; type: in vivo; conditions: fluroxypyr-MHE 70 g ae/ha
[10] = tested on: wild mustard (Sinapis arvensis, SINAR); experiment: Greenhouse postemergence trial, % visual injury; type: in vivo; conditions: fluroxypyr-MHE 70 g ae/ha
[11] = tested on: blackgrass (Alopecurus myosuroides, ALOMY); experiment: Greenhouse postemergence trial, % visual injury; type: in vivo; conditions: 70 g ae/ha
[12] = tested on: wild oat (Avena fatua, VEFA); experiment: Greenhouse postemergence trial, % visual injury; type: in vivo; conditions: AVEFA
[13] = tested on: large crabgrass (Digitaria sanguinalis, DIGSA); experiment: Greenhouse postemergence trial, % visual injury; type: in vivo; conditions: Digitaria sanguinalis, post-emergence, read-out: % visual injury, Obs
[14] = tested on: barnyardgrass (Echinochloa crus-galli, ECHCG); experiment: Greenhouse postemergence trial, % visual injury; type: in vivo; conditions: fluroxypyr-MHE 100 g ae/ha
[15] = tested on: kochia (KCHSC, Kochia scoparia); experiment: Greenhouse postemergence trial, % visual injury; type: in vivo
[16] = tested on: Canadian thistle (CIRAR, Cirsium arvense); experiment: Greenhouse postemergence trial, % visual injury; conditions: Cirsium arvense, post-emergence;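 also: plants sprayed at second to third true leaf stage, injury scored visually 20-22 d later against solvent-blank sprayed controls, 0 meaning no injury and 100 complete kill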
[17] = tested on: spring rape (Brassica napus, BRSNN); experiment: Greenhouse postemergence trial, % visual injury; conditions: Brassica napus, post-emergence
[18] = tested on: poinsettia (Euphorbia heterophylla, EPHHL); experiment: Greenhouse postemergence trial, % visual injury; conditions: Euphorbia heterophylla, post-emergence, read-out: % visual injury, Obs
[19] = tested on: wild pansy (Viola tricolor, VIOTR); experiment: Greenhouse postemergence trial, % visual injury; conditions: for % visual injury, Obs: VIOTR
[20] = tested on: ivyleaf morningglory (Ipomoea hederacea, IPOHE); experiment: Greenhouse postemergence trial, % visual injury
spring barley (HORVS) = experiment: Greenhouse postemergence trial, crop phytotoxicity (% visual injury)
winter wheat (TRZAW) = experiment: as above; conditions: for % visual injury, Obs: TRZAW
maize (ZEAMX) = experiment: as above; conditions: for % visual injury, Obs: ZEAMX
common rice (ORYSA) = experiment: as above
[21] = tested on: ivyleaved speedwell (Veronica hederifolia, VERHE); experiment: Greenhouse postemergence trial, % visual injury; type: in vivo; conditions: aminocyclopyrachlor 100 g ae/ha
[22] = tested on: grain sorghum (Sorghum vulgare, SORVU); experiment: Greenhouse postemergence trial, % visual injury; type: in vivo
[23] = tested on: common chickweed (Stellaria media, STEME); experiment: Greenhouse postemergence trial, % visual injury; type: in vivo; conditions: aminopyralid-TIPA 5 g ae/ha
[24] = read-out: % visual injury (Obs)

SMILES: CCCCCCC(C)OC(=O)COc1nc(F)c(Cl)c(N)c1Cl (centres unmarked) [Fluroxypyr-MHE, fluroxypyr-meptyl, reference compound]
- % visual injury, Obs ([1]; AMARE, 70 g ae/ha): 70%
- % visual injury (Obs) ([1]; fluroxypyr-MHE 70 g ae/ha): 50%
- % visual injury (Obs) [2]: 95%
- pest or weed control at 70 g/ha [3]: 10%
- % visual injury (Obs) [4]: 65%
- pest or weed control at 70 g/ha ([5]; Abutilon theophrasti, post-emergence, read-out: % visual injury, Obs): 40%
- % visual injury (Obs) ([5]; fluroxypyr-MHE 100 g ae/ha): 70%
- % visual injury, Obs [6]: 0%
- % visual injury (Obs) ([7]; fluroxypyr-MHE 100 g ae/ha): 80%
- % visual injury (Obs) ([8]; fluroxypyr-MHE 70 g ae/ha): 75%
- % visual injury (Obs) [9]: 95%
- % visual injury (Obs) [10]: 85%
- % visual injury, Obs [11]: 0%
- % visual injury, Obs ([12]; 70 g ae/ha): 0%
- pest or weed control at 70 g/ha [13]: 33%
- % visual injury (Obs) [14]: 0%
- % visual injury (Obs) ([15]; fluroxypyr-MHE 70 g ae/ha): 93%
- pest or weed control at 100 g/ha ([16]; read-out: % visual injury (Obs), fluroxypyr-MHE 100 g ae/ha): 60%
- pest or weed control at 70 g/ha ([16]; read-out: % visual injury Obs, 70 g ae/ha alone, 20-22 d): 10%
- plant injury at 100 g/ha [17, 24]: 85%
- plant injury at 70 g/ha ([17]; read-out: % visual injury, Obs): 15%
- pest or weed control at 70 g/ha [18]: 18%
- % visual injury, Obs ([19]; 70 g ae/ha): 80%
- % visual injury (Obs) ([19]; fluroxypyr-MHE 100 g ae/ha): 80%
- pest or weed control at 70 g/ha ([20]; Ipomoea, post-emergence, read-out: % visual injury, Obs): 80%
- % visual injury Obs (spring barley (HORVS); crop, 70 g ae/ha alone, 20-22 d): 20%
- % visual injury (Obs) (spring barley (HORVS); fluroxypyr-MHE 70 g ae/ha): 0%
- % visual injury, Obs (winter wheat (TRZAW); 70 g ae/ha): 0%
- % visual injury (Obs) (winter wheat (TRZAW); fluroxypyr-MHE 70 g ae/ha): 0%
- % visual injury (Obs) (winter wheat (TRZAW); fluroxypyr-MHE 100 g ae/ha): 0%
- % visual injury, Obs (maize (ZEAMX); 70 g ae/ha): 0%
- % visual injury (Obs) (maize (ZEAMX); fluroxypyr-MHE 100 g ae/ha): 0%
- % visual injury (Obs) (common rice (ORYSA); fluroxypyr-MHE 100 g ae/ha): 0%

SMILES: Nc1nc(C2CC2)nc(C(=O)O)c1Cl [aminocyclopyrachlor, reference compound]
- % visual injury (Obs) [21]: 75%

SMILES: Nc1cc(Cl)nc(C(=O)O)c1Cl [aminopyralid-TIPA, aminopyralid-triisopropanolammonium, reference compound]
- % visual injury (Obs) ([7]; aminopyralid-TIPA 5 g ae/ha): 60%
- % visual injury (Obs) ([8]; aminopyralid-TIPA 5 g ae/ha): 65%
- % visual injury, Obs ([22]; SORVU, 5 g ae/ha): 5%
- % visual injury (Obs) ([22]; aminopyralid-TIPA 5 g ae/ha): 0%
- % visual injury (Obs) [23]: 60%
- % visual injury, Obs ([12]; 5 g ae/ha): 0%
- pest or weed control at 5 g/ha [13]: 5%
- % visual injury (Obs) ([15]; aminopyralid-TIPA 5 g ae/ha): 10%
- pest or weed control at 5 g/ha ([16]; read-out: % visual injury (Obs), aminopyralid-TIPA 5 g ae/ha): 60%
- plant injury at 5 g/ha [17, 24]: 10%
- pest or weed control at 5 g/ha [18]: 18%
- % visual injury, Obs ([19]; 5 g ae/ha): 48%
- % visual injury (Obs) ([19]; aminopyralid-TIPA 5 g ae/ha): 10%
- % visual injury (Obs) ([20]; aminopyralid-TIPA 5 g ae/ha): 60%
- % visual injury, Obs (winter wheat (TRZAW); 5 g ae/ha): 0%
- % visual injury (Obs) (winter wheat (TRZAW); aminopyralid-TIPA 5 g ae/ha): 0%
- % visual injury, Obs (maize (ZEAMX); 5 g ae/ha): 3%
- % visual injury (Obs) (maize (ZEAMX); aminopyralid-TIPA 5 g ae/ha): 0%
- % visual injury (Obs) (common rice (ORYSA); aminopyralid-TIPA 5 g ae/ha): 0%
